According to ChEMBL document CHEMBL3228010, “Potential antitumor agents. 29. Quantitative structure-activity relationships for the antileukemic bisquaternary ammonium heterocycles” (J Med Chem, 1979):

Legend:
[1] = Lipophilic-hydrophilic balance, Rm of the compound by partition chromatography; assay type: physicochemical
[2] = system: Mus musculus; experiment: Toxicity in ip dosed C3H X DBA2 F1 hybrid mouse […] with mouse L1210 cells on day 0 and dosed once daily on days 1 to 5 measured after 50 days; assay type: organism-based; settings: in vivo, 1200 h
[3] = system: L1210; experiment: Antitumor activity against mouse L1210 cells […] in ip dosed C3H X DBA2 F1 hybrid mouse on day 0 and dosed at LD10 level once daily on days 1 to 5 assessed as increase in life span relative to control; assay type: functional

With `C[n+]1cccc2cc(NC(=O)CCc3ccc(C(=O)Nc4ccc5c(ccc[n+]5C)c4)cc3)ccc21.Cc1ccc(S(=O)(=O)[O-])cc1.Cc1ccc(S(=O)(=O)[O-])cc1` the Rm [1] was 0.85, the LD10 [2] was 270 mg/kg and the “log(ILSmax)” value [3] was <1.4.

For `CC[n+]1cccc2cc(NC(=O)c3ccc(C(=O)Nc4ccc5c(ccc[n+]5CC)c4)cc3)ccc21.Cc1ccc(S(=O)(=O)[O-])cc1.Cc1ccc(S(=O)(=O)[O-])cc1`, the Rm [1] was 0.03, the LD10 [2] was 4 mg/kg and the “log(ILSmax)” value [3] was 1.43.

With `C[n+]1cccc2cc(NC(=O)c3ccc(C(=O)Nc4ccc5c(ccc[n+]5C)c4)cc3)ccc21.Cc1ccc(S(=O)(=O)[O-])cc1.Cc1ccc(S(=O)(=O)[O-])cc1` the Rm [1] was -0.21, the LD10 [2] was 5 mg/kg and the “log(ILSmax)” value [3] was <1.4.

For `CCC[n+]1cccc2cc(NC(=O)CCc3ccc(C(=O)Nc4ccc5c(ccc[n+]5CCC)c4)cc3)ccc21.Cc1ccc(S(=O)(=O)[O-])cc1.Cc1ccc(S(=O)(=O)[O-])cc1`, the Rm [1] was 1.25, the LD10 [2] was 2 mg/kg and the “log(ILSmax)” value [3] was <1.4.

For `CCC[n+]1ccccc1Nc1ccc(NC(=O)c2ccc(C(=O)Nc3ccc(Nc4cccc[n+]4CCC)cc3)cc2)cc1.Cc1ccc(S(=O)(=O)[O-])cc1.Cc1ccc(S(=O)(=O)[O-])cc1`, the Rm [1] was 0.71, the LD10 [2] was 100 mg/kg and the “log(ILSmax)” value [3] was <1.4.

In the case of `CC[n+]1cccc2cc(NC(=O)c3ccc(NC(=O)c4ccc5c(ccc[n+]5CC)c4)cc3)ccc21.Cc1ccc(S(=O)(=O)[O-])cc1.Cc1ccc(S(=O)(=O)[O-])cc1`, the Rm [1] is reported as 0.02, the LD10 [2] is reported as 4 mg/kg and the “log(ILSmax)” value [3] is reported as <1.4.

In the case of `CCC[n+]1ccc(Nc2ccc(NC(=O)c3ccc(Nc4cc[n+](CCC)c5ccccc45)cc3)cc2N)cc1.[I-].[I-]`, the Rm [1] is reported as 0.76, the LD10 [2] is reported as 4.4 mg/kg and the “log(ILSmax)” value [3] is reported as 1.43.

With `CCC[n+]1cccc(NC(=O)c2ccc(NC(=O)c3ccc(C(=O)Nc4ccc(C(=O)Nc5ccc[n+](CCC)c5)cc4)c(C)c3)cc2)c1.Cc1ccc(S(=O)(=O)[O-])cc1.Cc1ccc(S(=O)(=O)[O-])cc1` the Rm [1] was 0.75, the LD10 [2] was 30 mg/kg and the “log(ILSmax)” value [3] was <1.4.

With `C[n+]1ccccc1NC(=O)c1ccc(NC(=O)c2ccc(C(=O)Nc3ccc(C(=O)Nc4cccc[n+]4C)cc3)cc2)cc1.Cc1ccc(S(=O)(=O)[O-])cc1.Cc1ccc(S(=O)(=O)[O-])cc1` the Rm [1] was 0.11, the LD10 [2] was 7 mg/kg and the “log(ILSmax)” value [3] was <1.4.

With `CCC[n+]1ccc(Nc2ccc(NC(=O)c3ccc(Nc4cc[n+](CCC)c5ccccc45)cc3N)cc2N)cc1.[I-].[I-]` the Rm [1] was 0.63, the LD10 [2] was 15 mg/kg and the “log(ILSmax)” value [3] was <1.4.

With `CCC[n+]1cccc(NC(=O)c2ccc(NC(=O)c3ccc(C(=O)Nc4ccc[n+](CCC)c4)cc3)cc2)c1.Cc1ccc(S(=O)(=O)[O-])cc1.Cc1ccc(S(=O)(=O)[O-])cc1` the Rm [1] was 0.65, the LD10 [2] was 15 mg/kg and the “log(ILSmax)” value [3] was <1.4.

For `CC[n+]1ccc(Nc2ccc(NC(=O)c3ccc(Nc4cc[n+](CC)c5ccccc45)cc3N)cc2N)cc1.[I-].[I-]`, the Rm [1] was 0.35, the LD10 [2] was 20 mg/kg and the “log(ILSmax)” value [3] was <1.4.

In the case of `CC(=NNC(=N)N)c1ccc(NC(=O)c2ccc(C(=O)Nc3ccc(Nc4cc[n+](C)cc4)cc3)cc2)cc1.Cc1ccc(S(=O)(=O)O)cc1.Cc1ccc(S(=O)(=O)[O-])cc1`, the Rm [1] is reported as -0.15.

With `CCC[n+]1cccc(NC(=O)c2ccc(NC(=O)C34CCC(C(=O)Nc5ccc(C(=O)Nc6ccc[n+](CCC)c6)cc5)(CC3)CC4)cc2)c1.Cc1ccc(S(=O)(=O)[O-])cc1.Cc1ccc(S(=O)(=O)[O-])cc1` the Rm [1] was 0.86, the LD10 [2] was 30 mg/kg and the “log(ILSmax)” value [3] was 1.54.

With `CCCCCC[n+]1cccc2cc(NC(=O)c3ccc(C(=O)Nc4ccc5c(ccc[n+]5CCCCCC)c4)cc3)ccc21.Cc1ccc(S(=O)(=O)[O-])cc1.Cc1ccc(S(=O)(=O)[O-])cc1` the Rm [1] was 1.03, the LD10 [2] was 27 mg/kg and the “log(ILSmax)” value [3] was <1.4.

For `CC[n+]1cccc2cc(NC(=O)CCc3ccc(C(=O)Nc4ccc5c(ccc[n+]5CC)c4)cc3)ccc21.Cc1ccc(S(=O)(=O)[O-])cc1.Cc1ccc(S(=O)(=O)[O-])cc1`, the Rm [1] was 1.1, the LD10 [2] was 1.6 mg/kg and the “log(ILSmax)” value [3] was <1.4.

For `CCC[n+]1ccccc1NC(=O)c1ccc(NC(=O)c2ccc(C(=O)Nc3ccc(C(=O)Nc4cccc[n+]4CCC)cc3)cc2)cc1.Cc1ccc(S(=O)(=O)[O-])cc1.Cc1ccc(S(=O)(=O)[O-])cc1`, the Rm [1] was 0.73, the LD10 [2] was 100 mg/kg and the “log(ILSmax)” value [3] was <1.4.

In the case of `C[n+]1cccc2cc(NC(=O)Cc3ccc(CC(=O)Nc4ccc5c(ccc[n+]5C)c4)cc3)ccc21.Cc1ccc(S(=O)(=O)[O-])cc1.Cc1ccc(S(=O)(=O)[O-])cc1`, the Rm [1] is reported as 0.07.

With `CC[n+]1ccccc1Nc1ccc(NC(=O)c2ccc(C(=O)Nc3ccc(Nc4cccc[n+]4CC)cc3)cc2)cc1.[I-].[I-]` the Rm [1] was 0.53, the LD10 [2] was 16 mg/kg and the “log(ILSmax)” value [3] was <1.4.

In the case of `C[n+]1cccc2cc(NC(=O)c3ccc(C(=O)Nc4ccc5c(ccc[n+]5C)c4)nc3)ccc21.Cc1ccc(S(=O)(=O)[O-])cc1.Cc1ccc(S(=O)(=O)[O-])cc1`, the Rm [1] is reported as -0.4, the LD10 [2] is reported as 4 mg/kg and the “log(ILSmax)” value [3] is reported as <1.4.

In the case of `C[n+]1cccc2cc(NC(=O)COc3ccc(C(=O)Nc4ccc5c(ccc[n+]5C)c4)cc3)ccc21.Cc1ccc(S(=O)(=O)[O-])cc1.Cc1ccc(S(=O)(=O)[O-])cc1`, the Rm [1] is reported as -0.3, the LD10 [2] is reported as 0.6 mg/kg and the “log(ILSmax)” value [3] is reported as <1.4.

With `CCC[n+]1cccc(NC(=O)c2ccc(NC(=O)c3ccc(C(=O)Nc4ccc(C(=O)Nc5ccc[n+](CCC)c5)cc4)c(N)c3)cc2)c1.Cc1ccc(S(=O)(=O)[O-])cc1.Cc1ccc(S(=O)(=O)[O-])cc1` the Rm [1] was 0.2, the LD10 [2] was 47 mg/kg and the “log(ILSmax)” value [3] was <1.4.

For `CCCC[n+]1cccc2cc(NC(=O)c3ccc(NC(=O)c4ccc5c(ccc[n+]5CCCC)c4)cc3)ccc21.Cc1ccc(S(=O)(=O)[O-])cc1.Cc1ccc(S(=O)(=O)[O-])cc1`, the Rm [1] was 0.59, the LD10 [2] was 200 mg/kg and the “log(ILSmax)” value [3] was <1.4.

For `CC[n+]1cccc(NC(=O)c2ccc(NC(=O)c3ccc(C(=O)Nc4ccc[n+](CC)c4)cc3)cc2)c1.Cc1ccc(S(=O)(=O)[O-])cc1.Cc1ccc(S(=O)(=O)[O-])cc1`, the Rm [1] was 0.3, the LD10 [2] was 8 mg/kg and the “log(ILSmax)” value [3] was <1.4.

For `CC[n+]1cccc(NC(=O)c2ccc(NC(=O)c3ccc(C(=O)Nc4ccc(C(=O)Nc5ccc[n+](CC)c5)cc4C)cc3)c(C)c2)c1.Cc1ccc(S(=O)(=O)[O-])cc1.Cc1ccc(S(=O)(=O)[O-])cc1`, the Rm [1] was 0.47, the LD10 [2] was 18 mg/kg and the “log(ILSmax)” value [3] was <1.4.

With `C[n+]1ccccc1-c1ccc(NC(=O)c2ccc(C(=O)Nc3ccc(-c4cccc[n+]4C)cc3)cc2)cc1.Cc1ccc(S(=O)(=O)[O-])cc1.Cc1ccc(S(=O)(=O)[O-])cc1` the Rm [1] was 0.11, the LD10 [2] was 10 mg/kg and the “log(ILSmax)” value [3] was <1.4.

With `CC[n+]1ccccc1-c1ccc(NC(=O)c2ccc(C(=O)Nc3ccc(-c4cccc[n+]4CC)cc3)cc2)cc1.Cc1ccc(S(=O)(=O)[O-])cc1.Cc1ccc(S(=O)(=O)[O-])cc1` the Rm [1] was 0.26, the LD10 [2] was 10 mg/kg and the “log(ILSmax)” value [3] was <1.4.

For `CCCC[n+]1cccc2cc(NC(=O)Cc3ccc(CC(=O)Nc4ccc5c(ccc[n+]5CCCC)c4)cc3)ccc21.Cc1ccc(S(=O)(=O)[O-])cc1.Cc1ccc(S(=O)(=O)[O-])cc1`, the Rm [1] was 0.92.
